Assay results published in ChEMBL document CHEMBL1201862, “PubChem BioAssay data set” (2004).
Activity calls are given as the source filed them.

Experiments:
[1] = molecular target: T1, Carboxy-terminal domain RNA polymerase II polypeptide A small phosphatase 1 (Homo sapiens, UniProt Q9GZU7); experiment: CTDSP1 inhibitors, concentration-response, biochemical, absorbance readout, ultra-high-throughput screen actives (AID 540297); assay type: functional
T1 sequence (Q9GZU7 whole entry): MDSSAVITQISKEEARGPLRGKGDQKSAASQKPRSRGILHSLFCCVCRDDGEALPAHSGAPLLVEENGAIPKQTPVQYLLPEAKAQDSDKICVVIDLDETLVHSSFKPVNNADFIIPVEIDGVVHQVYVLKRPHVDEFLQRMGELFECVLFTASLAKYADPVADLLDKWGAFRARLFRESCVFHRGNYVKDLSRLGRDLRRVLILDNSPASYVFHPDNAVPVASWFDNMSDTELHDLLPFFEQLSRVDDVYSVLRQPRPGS

[2] = NIH-3T3 fibroblast cytotoxicity, dose response, cytotoxicity control, cell-based, fluorescence, Alamar Blue, secondary assay (AID 2327); assay type: functional;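 note: NIH-3T3 mouse fibroblasts cultured with fluconazole at 8 µg/mL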
[3] = fluconazole-exposed Candida albicans growth modulators – fluorescence, retest, confirmation (AID 2467); assay type: functional, cell-based
[4] = molecular target: T2, Type-1 angiotensin II receptor (Homo sapiens, UniProt P30556); experiment: antagonism of angiotensin II type 1 receptor – cell-based, uHTS hits, selectivity assay for APJ receptor antagonist project, dose response (AID 463214); assay type: functional;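 note: antagonist potency against angiotensin II stimulated AT1 response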
T2 sequence (P30556 whole entry): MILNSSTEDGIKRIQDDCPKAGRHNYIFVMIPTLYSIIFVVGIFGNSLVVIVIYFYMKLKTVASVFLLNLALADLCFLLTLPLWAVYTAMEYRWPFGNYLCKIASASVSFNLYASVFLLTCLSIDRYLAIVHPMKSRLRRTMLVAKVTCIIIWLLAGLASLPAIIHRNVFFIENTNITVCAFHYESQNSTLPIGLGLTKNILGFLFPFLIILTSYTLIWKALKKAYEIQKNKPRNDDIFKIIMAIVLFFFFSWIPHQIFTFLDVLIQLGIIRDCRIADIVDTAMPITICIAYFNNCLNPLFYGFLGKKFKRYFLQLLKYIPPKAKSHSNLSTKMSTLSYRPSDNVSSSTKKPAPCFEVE

Beta-galactosidase = Beta-galactosidase (Escherichia coli, UniProt Q8VNN2); experiment: PubChem AID 485352; assay type: functional
Sequence of Beta-galactosidase (Q8VNN2 whole entry): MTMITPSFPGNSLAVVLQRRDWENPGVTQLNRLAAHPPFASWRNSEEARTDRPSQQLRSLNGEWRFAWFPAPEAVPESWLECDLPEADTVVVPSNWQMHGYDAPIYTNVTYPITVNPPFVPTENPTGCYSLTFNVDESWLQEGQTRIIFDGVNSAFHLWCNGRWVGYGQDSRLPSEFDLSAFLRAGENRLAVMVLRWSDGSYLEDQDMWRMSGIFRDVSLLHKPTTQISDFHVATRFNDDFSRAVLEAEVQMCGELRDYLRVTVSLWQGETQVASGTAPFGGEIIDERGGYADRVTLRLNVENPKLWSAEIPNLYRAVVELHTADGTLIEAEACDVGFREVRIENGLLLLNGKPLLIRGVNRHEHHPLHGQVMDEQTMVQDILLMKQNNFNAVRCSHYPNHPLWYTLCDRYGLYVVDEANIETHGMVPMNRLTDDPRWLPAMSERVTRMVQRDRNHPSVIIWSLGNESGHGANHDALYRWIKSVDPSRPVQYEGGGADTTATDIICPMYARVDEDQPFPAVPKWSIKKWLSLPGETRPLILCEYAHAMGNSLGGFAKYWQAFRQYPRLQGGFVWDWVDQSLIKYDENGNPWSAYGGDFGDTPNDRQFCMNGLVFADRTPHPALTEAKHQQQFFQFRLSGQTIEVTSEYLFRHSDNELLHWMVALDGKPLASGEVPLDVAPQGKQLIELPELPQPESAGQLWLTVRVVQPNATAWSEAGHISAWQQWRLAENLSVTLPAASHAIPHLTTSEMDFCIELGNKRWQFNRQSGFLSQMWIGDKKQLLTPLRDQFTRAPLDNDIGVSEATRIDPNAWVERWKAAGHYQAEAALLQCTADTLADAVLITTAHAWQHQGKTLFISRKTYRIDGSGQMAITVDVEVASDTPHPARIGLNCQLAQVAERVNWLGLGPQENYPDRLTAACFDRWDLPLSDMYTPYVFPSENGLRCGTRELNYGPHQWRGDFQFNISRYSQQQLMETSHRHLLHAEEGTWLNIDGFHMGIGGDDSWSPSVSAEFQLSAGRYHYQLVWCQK

Cytochrome P450 1A2 = molecular target: T3, Cytochrome P450 1A2 (Homo sapiens, UniProt P05177);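 note: PubChem cytochrome P450 panel assay, CYP1A2 panel member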
T3 sequence (P05177 whole entry): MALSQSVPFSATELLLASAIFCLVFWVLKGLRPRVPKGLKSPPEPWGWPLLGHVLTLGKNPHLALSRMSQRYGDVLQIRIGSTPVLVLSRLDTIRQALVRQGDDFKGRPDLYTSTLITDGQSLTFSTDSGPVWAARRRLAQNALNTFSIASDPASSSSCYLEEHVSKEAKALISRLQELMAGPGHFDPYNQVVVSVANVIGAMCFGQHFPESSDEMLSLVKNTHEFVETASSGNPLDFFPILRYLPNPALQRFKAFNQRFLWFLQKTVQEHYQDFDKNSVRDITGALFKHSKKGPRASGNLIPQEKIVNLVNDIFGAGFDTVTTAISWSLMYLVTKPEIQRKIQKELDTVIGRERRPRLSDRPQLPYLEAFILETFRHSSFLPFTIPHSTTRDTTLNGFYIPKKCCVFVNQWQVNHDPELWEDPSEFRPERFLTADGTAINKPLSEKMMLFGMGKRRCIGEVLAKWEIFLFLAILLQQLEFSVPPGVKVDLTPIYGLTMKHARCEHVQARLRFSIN

Cytochrome P450 3A4 = Cytochrome P450 3A4 (Homo sapiens, UniProt P08684);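 note: CYP3A4 tested as one member of a cytochrome P450 panel screen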
Sequence of Cytochrome P450 3A4 (P08684 whole entry): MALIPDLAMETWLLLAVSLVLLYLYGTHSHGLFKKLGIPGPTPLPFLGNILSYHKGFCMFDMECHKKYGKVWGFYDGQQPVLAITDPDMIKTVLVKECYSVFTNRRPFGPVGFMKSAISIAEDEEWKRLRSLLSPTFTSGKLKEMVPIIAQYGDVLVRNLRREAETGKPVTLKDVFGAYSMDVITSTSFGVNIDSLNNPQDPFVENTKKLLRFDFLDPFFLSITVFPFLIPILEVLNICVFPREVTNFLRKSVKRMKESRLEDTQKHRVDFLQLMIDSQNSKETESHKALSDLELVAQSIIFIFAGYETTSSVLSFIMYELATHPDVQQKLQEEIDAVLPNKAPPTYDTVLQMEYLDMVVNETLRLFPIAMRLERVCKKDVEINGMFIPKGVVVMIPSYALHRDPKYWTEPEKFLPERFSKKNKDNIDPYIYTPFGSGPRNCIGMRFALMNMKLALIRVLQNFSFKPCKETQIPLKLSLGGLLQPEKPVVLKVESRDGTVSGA

Cytochrome P450 2C19 = Cytochrome P450 2C19 (Homo sapiens, UniProt P33261); experiment: Cytochrome panel assay with activity outcomes. Panel member name: p450-cyp2c19 Compounds with AC50 equal or less than 10 uM are considered active; assay type: functional; details: read-out: AC50
Sequence of Cytochrome P450 2C19 (P33261 whole entry): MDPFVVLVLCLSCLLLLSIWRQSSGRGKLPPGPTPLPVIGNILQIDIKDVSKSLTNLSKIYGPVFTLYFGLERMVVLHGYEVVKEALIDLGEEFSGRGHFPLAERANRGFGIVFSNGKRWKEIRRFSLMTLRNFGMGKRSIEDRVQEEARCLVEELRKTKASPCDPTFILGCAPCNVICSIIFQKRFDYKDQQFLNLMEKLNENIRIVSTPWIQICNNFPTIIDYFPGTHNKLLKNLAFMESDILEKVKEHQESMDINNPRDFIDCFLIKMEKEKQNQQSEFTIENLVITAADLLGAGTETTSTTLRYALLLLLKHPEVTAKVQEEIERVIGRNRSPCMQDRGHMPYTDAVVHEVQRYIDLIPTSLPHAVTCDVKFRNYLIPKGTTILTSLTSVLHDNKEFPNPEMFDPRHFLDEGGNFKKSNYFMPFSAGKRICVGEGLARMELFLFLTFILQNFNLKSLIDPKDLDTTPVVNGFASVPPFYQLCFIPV

[5] = molecular target: T4, Heat shock factor protein 1 (Mus musculus, UniProt P38532); experiment: decrease of HSF1-responsive luciferase luminescence – cell-based, NIH3T3, dose retest, confirmation (AID 2382); assay type: functional;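 note: NIH3T3 fibroblasts with HSF1-driven luciferase reporter stressed by proteasome inhibitor MG132; luminescence from HSF1-driven luciferase expression after 8 hours of MG132 stress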
T4 sequence (P38532 whole entry): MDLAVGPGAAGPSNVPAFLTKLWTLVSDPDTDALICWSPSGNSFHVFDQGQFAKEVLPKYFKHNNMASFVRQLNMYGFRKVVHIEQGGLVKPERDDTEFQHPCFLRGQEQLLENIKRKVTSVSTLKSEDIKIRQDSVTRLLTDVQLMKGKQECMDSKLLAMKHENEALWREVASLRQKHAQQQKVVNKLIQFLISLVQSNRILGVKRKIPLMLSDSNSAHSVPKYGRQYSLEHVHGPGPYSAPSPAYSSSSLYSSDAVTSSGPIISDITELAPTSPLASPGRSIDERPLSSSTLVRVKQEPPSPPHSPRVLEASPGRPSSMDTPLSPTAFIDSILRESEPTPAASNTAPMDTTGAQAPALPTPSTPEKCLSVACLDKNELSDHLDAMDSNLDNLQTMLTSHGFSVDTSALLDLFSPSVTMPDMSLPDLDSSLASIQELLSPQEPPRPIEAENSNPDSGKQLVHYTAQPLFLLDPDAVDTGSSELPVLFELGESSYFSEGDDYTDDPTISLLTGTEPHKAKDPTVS

Cytochrome P450 2C9 = Cytochrome P450 2C9 (Homo sapiens, UniProt P11712)
Sequence of Cytochrome P450 2C9 (P11712 whole entry): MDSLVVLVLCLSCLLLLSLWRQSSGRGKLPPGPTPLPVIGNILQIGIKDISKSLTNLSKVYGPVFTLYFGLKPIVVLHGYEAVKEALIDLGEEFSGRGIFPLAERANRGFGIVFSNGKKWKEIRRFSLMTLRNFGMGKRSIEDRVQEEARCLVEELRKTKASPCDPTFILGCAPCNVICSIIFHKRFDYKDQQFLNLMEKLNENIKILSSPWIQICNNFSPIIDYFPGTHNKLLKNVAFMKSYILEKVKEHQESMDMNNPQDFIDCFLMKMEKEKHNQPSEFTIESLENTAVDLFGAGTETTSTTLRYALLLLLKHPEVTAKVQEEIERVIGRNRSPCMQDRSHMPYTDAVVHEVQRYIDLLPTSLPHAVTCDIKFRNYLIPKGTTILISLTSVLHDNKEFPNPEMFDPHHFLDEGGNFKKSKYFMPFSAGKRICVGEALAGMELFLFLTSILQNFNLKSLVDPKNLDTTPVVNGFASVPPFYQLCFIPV

[6] = Luminescence Cell-Based Dose Retest to Confirm Inhibitors of Cancer Stem Cells. [Related pubchem assays (depositor defined):AID2717, AID2721]; assay type: functional; details: Homo sapiens
[7] = NIH3T3 cell viability loss – ATP luminescence, mouse fibroblasts, counter-screen, dose response (AID 2010); assay type: functional, cell-based;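 note: cells exposed to compound for about 90 hours before reading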
[8] = Trypanosoma cruzi growth suppression in host cells – NIH3T3 host cells, beta-gal luminescence, confirmation (AID 2044); assay type: functional, cell-based;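 note: intracellular parasites grown in NIH/3T3 mouse fibroblasts as host cells; luminescent beta-galactosidase reporter signal from transgenic T. cruzi replicating inside host cells; inhibitors lower the luminescence signal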
[9] = molecular target: T5, Microphthalmia-associated transcription factor (Homo sapiens, UniProt O75030); experiment: reducers of TRPM1 reporter luminescence, concentration series – cell-based, SK-MEL-5, cherry-picked, set 3, MITF inhibitor project, dose response (AID 493073); assay type: functional;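 note: SK-MEL-5 melanoma cells with luciferase driven by the MITF target TRPM1 promoter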
T5 sequence (O75030 whole entry): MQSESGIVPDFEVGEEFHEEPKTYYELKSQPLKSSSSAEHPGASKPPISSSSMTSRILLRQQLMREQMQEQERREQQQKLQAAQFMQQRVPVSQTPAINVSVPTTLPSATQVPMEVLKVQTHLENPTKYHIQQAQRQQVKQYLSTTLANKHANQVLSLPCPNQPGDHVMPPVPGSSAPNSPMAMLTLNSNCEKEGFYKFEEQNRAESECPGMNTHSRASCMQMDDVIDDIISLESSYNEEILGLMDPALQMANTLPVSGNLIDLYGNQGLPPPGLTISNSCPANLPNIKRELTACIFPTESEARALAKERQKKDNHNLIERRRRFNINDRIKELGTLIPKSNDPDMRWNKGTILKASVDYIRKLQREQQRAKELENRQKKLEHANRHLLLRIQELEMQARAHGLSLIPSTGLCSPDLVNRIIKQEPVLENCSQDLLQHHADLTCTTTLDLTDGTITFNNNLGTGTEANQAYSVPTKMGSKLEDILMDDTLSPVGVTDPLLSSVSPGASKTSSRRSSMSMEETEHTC

BJ [10] = experiment: BJ-TERT fibroblast viability loss – cell-based, RAS-independent, luminescence, dose response (AID 1933); assay type: functional; details: Homo sapiens
[11] = DRD fibroblast viability loss – cell-based, non-viral oncogenic, luminescence, dose response (AID 1934); assay type: functional; details: Homo sapiens
BJ [12] = experiment: BJ-TERT-LT-ST fibroblast viability loss – cell-based, RAS-independent, luminescence, dose response (AID 1935); assay type: functional; details: Homo sapiens;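 note: BJ fibroblasts immortalized with TERT plus LT and ST oncogenes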
BJ [13] = experiment: growth inhibition of engineered Ras-driven BJ cells – cell-based, alamar blue fluorescence, cherrypicked samples, dose response (AID 2631); assay type: functional; details: Homo sapiens;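 note: confirmatory dose-response assay in RAS-dependent BJ fibroblasts engineered with TERT, LT and ST, with cytotoxicity read by fluorescence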
BJ [14] = experiment: cells; assay type: functional, cell-based; details: Homo sapiens
[15] = intracellular Trypanosoma cruzi inhibitors in host cells – cell-based, plate reader, cherry-pick samples, set 3, dose response (AID 651818); assay type: functional;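 note: compounds incubated with infected cells for about four days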
SN12K1 = experiment: cells; assay type: functional; details: Homo sapiens
[16] = alpha-synuclein stem-loop luciferase translation blockers – H4 neuroglioma cells, luminescence, confirmation (AID 1988); assay type: functional, cell-based
P388 = experiment: cells; assay type: functional; details: Mus musculus
[17] = luciferase reporter signal suppression in cells – H4 neuroglioma cells, luminescence, dose response (AID 1990); assay type: functional, cell-based
[18] = Luminescence Cell-Based Dose Response HTS to Identify Inhibitors of 5'UTR Stem-Loop Driven Prion Protein mRNA Translation in H4 Neuroglioblastoma Cells. [Related pubchem assays: 1827 (Project Summary), 1813 (Primary HTS)]; assay type: functional
P388/ADR = experiment: cells; assay type: functional; details: Mus musculus

## Cc1c(Cc2ccccc2)c(=O)oc2c(C)c(OCC(=O)NC[C@H]3CC[C@H](C(=O)O)CC3)ccc12
[1]
  IC50: 4.87 µM (active)

## Cc1onc(C(=O)Nc2sc3c(c2C#N)CCCC3)c1[N+](=O)[O-]
[2]
  EC50: > 75 µM (inactive)
[3]
  EC50: 1.59 µM (active)

## Cn1c(=O)c(C(=S)NC(=O)C2CC2)c(N)n(Cc2ccccc2)c1=O
[4]
  IC50: > 40 µM (not active)
Beta-galactosidase
  EC50: > 40 µM (inactive)

## CCOc1c2ccc(C(=O)NCc3ccccc3OC)cc2nn1CC
Cytochrome P450 1A2
  AC50: 17.8 µM (inconclusive)
Cytochrome P450 3A4
  AC50: 15.8 µM (inconclusive)
Cytochrome P450 2C19
  AC50: 39.8 µM (inconclusive)
[5]
  EC50: > 195 µM (not active)
Cytochrome P450 2C9
  AC50: inconclusive

## N=C1/C(=C/c2cccn2-c2ccc([N+](=O)[O-])cc2)C(=O)N=C2SC=CN12
[2]
  EC50: > 160 µM (inactive)
[3]
  EC50: 1.33 µM (active)

## Cn1cc(-c2nc3cnc(Oc4cccc(Cl)c4)nc3n(CCC#N)c2=O)c2ccccc21
Cytochrome P450 1A2
  AC50: 2.51 µM (inconclusive)
Cytochrome P450 3A4
  AC50: 7.94 µM (inconclusive)
Cytochrome P450 2C9
  AC50: inconclusive

## Cc1c(NC(=S)/C=C2\N(C)c3ccccc3C2(C)C)c(=O)n(-c2ccccc2)n1C
Cytochrome P450 2C9
  AC50: inconclusive

## O=C(NNC(=O)c1cc2ccccc2cc1O)NC1CCCCC1
[2]
  EC50: > 150 µM (inactive)
[3]
  EC50: > 38 µM (not active)

## Cc1cc(C)c2sc(N(CCCN(C)C)C(=O)c3ccc(S(=O)(=O)N4CCCc5ccccc54)cc3)nc2c1
[4]
  IC50: > 40 µM (not active)
Beta-galactosidase
  EC50: > 40 µM (inactive)
[6]
  AC50: 4.46 µM (active)
[7]
  EC50: 12.2 µM (active)
[8]
  EC50: 0.452 µM (active)

## CN(C)S(=O)(=O)c1cccc(NC(=O)CSc2nc3c(cc2C#N)C(=O)CC(C)(C)C3)c1
[9]
  AC50: 9.02 µM (active)

## O=C(COC(=O)c1cnccn1)c1cccc([N+](=O)[O-])c1
[4]
  IC50: 13.6 µM (active)
Beta-galactosidase
  EC50: > 40 µM (inactive)

## CCOC(=O)/C=C1\CN(C(C)c2ccccc2)S(=O)(=O)c2ccccc21 (stereo not given)
[1]
  IC50: 12.3 µM (active)

## COc1ccccc1N1CCN(c2nc3c(C)cccn3c(=O)c2C=O)CC1
Cytochrome P450 1A2
  AC50: 12.6 µM (inconclusive)
Cytochrome P450 2C19
  AC50: 1.12 µM (inconclusive)
Cytochrome P450 2C9
  AC50: inconclusive

## Cc1cccc(C2NC(=O)c3c(sc(C)c3C)N2)c1O (stereo not given)
Cytochrome P450 2C9
  AC50: inconclusive

## COc1cccc2sc(Nc3nc(C)c(C(C)=O)s3)nc12
[4]
  IC50: 23.3 µM (not active)
Beta-galactosidase
  EC50: > 40 µM (inactive)
[7]
  EC50: 7.09 µM (active)
[8]
  EC50: 1.82 µM (active)

## CCCC(=O)Nc1ccc(C(=O)N/N=C/c2ccc([N+](=O)[O-])o2)cc1
BJ [10]
  EC50: 17.2 µM (active)
[11]
  EC50: 26.5 µM (active)
BJ [12]
  EC50: 0.534 µM (inconclusive)
BJ [13]
  EC50: 0.123 µM (active)
BJ [14]
  EC50: 0.38 µM (active)

## COc1ccc(S(=O)(=O)Nc2ccc3c(c2)CC(=O)N([C@@H](C)CO)C[C@H](C)[C@H](CN(C)Cc2ccc(C(=O)Nc4ccccc4N)cc2)O3)cc1
[15]
  AC50: 3.23 µM (active)

## C[C@@H]1CCCCO[C@@H](CN(C)Cc2ccc(Cl)c(Cl)c2)[C@@H](C)CN([C@H](C)CO)C(=O)c2cc(NC(=O)NC3CCCCC3)ccc2O1
[15]
  AC50: 5.48 µM (active)

## COc1ccc(S(=O)(=O)N(C)C[C@H]2Oc3ccc(NS(=O)(=O)c4ccc(Cl)cc4)cc3CC(=O)N([C@H](C)CO)C[C@H]2C)cc1
[15]
  AC50: 4.94 µM (active)

## C[C@@H]1CN([C@@H](C)CO)C(=O)Cc2cc(NC(=O)Cc3ccccc3)ccc2O[C@@H]1CN(C)Cc1ccc(Oc2ccccc2)cc1
[15]
  AC50: 2.61 µM (active)

## C[C@@H]1CCCCO[C@H](CN(C)C(=O)Nc2ccc(C(F)(F)F)cc2)[C@@H](C)CN([C@H](C)CO)C(=O)c2cc(NC(=O)C3CCCCC3)ccc2O1
[15]
  AC50: 1.12 µM (active)

## C[C@H]1CN([C@@H](C)CO)C(=O)Cc2cc(NC(=O)NC3CCCCC3)ccc2O[C@@H]1CN(C)Cc1ccc(Oc2ccccc2)cc1
[15]
  AC50: 6.74 µM (active)

## COc1ccc(S(=O)(=O)Nc2ccc3c(c2)CC(=O)N([C@H](C)CO)C[C@@H](C)[C@@H](CN(C)Cc2ccc(C(=O)Nc4ccccc4N)cc2)O3)cc1
[15]
  AC50: 2.9 µM (active)

## CC1CN(/N=C/c2ccc([N+](=O)[O-])o2)C(=N)O1 (stereo not given)
[9]
  AC50: 24.1 µM (active)

## COC(=O)C[C@](O)(CCCC(C)(C)O)C(=O)O[C@@H]1C(OC)=C[C@]23CCCN2CCc2cc4c(cc2[C@H]13)OCO4 [OMACETAXINE MEPESUCCINATE]
SN12K1
  GI50: 0.0115 µM (active)
[16]
  EC50: < 0.1 µM (active)
P388
  GI50: 0.00388 µM (active)
[17]
  EC50: < 0.1 µM (active)
[18]
  EC50: < 0.1 µM (active)
BJ [13]
  EC50: 0.00488 µM (active)
P388/ADR
  GI50: 0.247 µM (active)
